Results as given in patent US11834453B2, “Substituted pyrimido[5,4-d]pyrimidines as HER2 inhibitors” (Array BioPharma Inc., priority 2020, dated 2023).
Read-outs that look alike come from different tables or passages of the source.

Columns and labels:
[1] = molecular target: ErbB2 insYVMA (HER2-YVMA, SEQ ID NO: 2) (Homo sapiens, UniProt P04626, INS775YVMA/P1170A); assay: biochemical; settings: ErbB2 insYVMA enzyme assay
ErbB2 WT = ErbB2 WT (Homo sapiens (Human), UniProt P04626); assay: ErbB enzyme assay (CisBio HTRF KinEASE-TK), Assay 2; format: biochemical
Method in brief: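 Readout is HTRF KinEASE-TK, using Sa-XL665 and cryptate antibody for 1 h at 22 °C, as percent of control between DMSO-only (100) and pre-quenched (0) reactions. The kinase reaction runs 30 min at 22 °C with 1 mM ATP and 250 nM biotinylated TK substrate, in HEPES pH 7.4 with MgCl2 and 2% DMSO.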

EGFR = EGFR (Homo sapiens (Human), UniProt P00533); assay: ErbB enzyme assay (CisBio HTRF KinEASE-TK), Assay 3; format: biochemical
Chain of EGFR (P00533 25-1210): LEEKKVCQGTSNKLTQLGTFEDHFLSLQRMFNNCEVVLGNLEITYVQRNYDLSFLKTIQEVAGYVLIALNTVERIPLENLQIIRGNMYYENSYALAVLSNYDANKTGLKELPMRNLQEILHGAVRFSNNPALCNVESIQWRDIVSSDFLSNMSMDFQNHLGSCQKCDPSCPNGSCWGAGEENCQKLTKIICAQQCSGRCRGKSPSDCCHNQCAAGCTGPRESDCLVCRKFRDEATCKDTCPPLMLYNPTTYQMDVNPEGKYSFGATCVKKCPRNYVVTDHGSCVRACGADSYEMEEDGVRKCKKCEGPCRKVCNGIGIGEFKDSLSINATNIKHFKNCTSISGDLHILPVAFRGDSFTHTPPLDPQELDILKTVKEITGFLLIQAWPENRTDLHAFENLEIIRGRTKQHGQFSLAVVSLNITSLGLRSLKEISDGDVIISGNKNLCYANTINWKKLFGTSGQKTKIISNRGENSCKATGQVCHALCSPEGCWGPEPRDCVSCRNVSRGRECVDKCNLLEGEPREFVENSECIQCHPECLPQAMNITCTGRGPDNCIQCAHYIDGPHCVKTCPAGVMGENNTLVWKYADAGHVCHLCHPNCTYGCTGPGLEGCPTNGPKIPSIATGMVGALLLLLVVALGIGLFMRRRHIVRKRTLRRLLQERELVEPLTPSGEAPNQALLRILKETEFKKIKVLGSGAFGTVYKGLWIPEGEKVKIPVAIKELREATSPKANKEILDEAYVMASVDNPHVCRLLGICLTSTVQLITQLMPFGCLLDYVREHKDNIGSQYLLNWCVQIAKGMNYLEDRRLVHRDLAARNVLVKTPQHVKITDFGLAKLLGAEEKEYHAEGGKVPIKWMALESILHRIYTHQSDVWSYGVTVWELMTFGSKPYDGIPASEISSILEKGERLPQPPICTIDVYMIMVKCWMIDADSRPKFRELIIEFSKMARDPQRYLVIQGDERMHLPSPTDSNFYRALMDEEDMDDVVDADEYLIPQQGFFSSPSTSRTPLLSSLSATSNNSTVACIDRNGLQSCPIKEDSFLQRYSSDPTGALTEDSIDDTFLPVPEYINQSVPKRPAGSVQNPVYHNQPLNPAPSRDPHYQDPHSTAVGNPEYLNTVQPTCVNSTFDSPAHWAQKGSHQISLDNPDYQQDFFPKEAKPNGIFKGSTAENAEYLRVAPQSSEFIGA
Method in brief: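 Using a time-resolved FRET read-out, tyrosine phosphorylation of 250 nM biotin substrate at 1 mM ATP (pH 7.4, 10 mM MgCl2, 2% DMSO, 22 °C, 30 min) was quantified against DMSO and pre-quenched controls; IC50 taken at 50% of control.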

[2] = molecular target: ErbB2 with Exon 20 YVMA insertion (HER2-YVMA) (Homo sapiens (Human), UniProt P04626, INS775YVMA); assay: Cellular phosphorylation assay, constitutive ErbB2 phosphorylation (Y1196) in engineered NIH 3T3 cells, Assay 4; format: cell-based
Chain of ErbB2 with Exon 20 YVMA insertion (HER2-YVMA) (P04626 other isoform, or with tags, fused parts or gaps ins YVMA behind 775): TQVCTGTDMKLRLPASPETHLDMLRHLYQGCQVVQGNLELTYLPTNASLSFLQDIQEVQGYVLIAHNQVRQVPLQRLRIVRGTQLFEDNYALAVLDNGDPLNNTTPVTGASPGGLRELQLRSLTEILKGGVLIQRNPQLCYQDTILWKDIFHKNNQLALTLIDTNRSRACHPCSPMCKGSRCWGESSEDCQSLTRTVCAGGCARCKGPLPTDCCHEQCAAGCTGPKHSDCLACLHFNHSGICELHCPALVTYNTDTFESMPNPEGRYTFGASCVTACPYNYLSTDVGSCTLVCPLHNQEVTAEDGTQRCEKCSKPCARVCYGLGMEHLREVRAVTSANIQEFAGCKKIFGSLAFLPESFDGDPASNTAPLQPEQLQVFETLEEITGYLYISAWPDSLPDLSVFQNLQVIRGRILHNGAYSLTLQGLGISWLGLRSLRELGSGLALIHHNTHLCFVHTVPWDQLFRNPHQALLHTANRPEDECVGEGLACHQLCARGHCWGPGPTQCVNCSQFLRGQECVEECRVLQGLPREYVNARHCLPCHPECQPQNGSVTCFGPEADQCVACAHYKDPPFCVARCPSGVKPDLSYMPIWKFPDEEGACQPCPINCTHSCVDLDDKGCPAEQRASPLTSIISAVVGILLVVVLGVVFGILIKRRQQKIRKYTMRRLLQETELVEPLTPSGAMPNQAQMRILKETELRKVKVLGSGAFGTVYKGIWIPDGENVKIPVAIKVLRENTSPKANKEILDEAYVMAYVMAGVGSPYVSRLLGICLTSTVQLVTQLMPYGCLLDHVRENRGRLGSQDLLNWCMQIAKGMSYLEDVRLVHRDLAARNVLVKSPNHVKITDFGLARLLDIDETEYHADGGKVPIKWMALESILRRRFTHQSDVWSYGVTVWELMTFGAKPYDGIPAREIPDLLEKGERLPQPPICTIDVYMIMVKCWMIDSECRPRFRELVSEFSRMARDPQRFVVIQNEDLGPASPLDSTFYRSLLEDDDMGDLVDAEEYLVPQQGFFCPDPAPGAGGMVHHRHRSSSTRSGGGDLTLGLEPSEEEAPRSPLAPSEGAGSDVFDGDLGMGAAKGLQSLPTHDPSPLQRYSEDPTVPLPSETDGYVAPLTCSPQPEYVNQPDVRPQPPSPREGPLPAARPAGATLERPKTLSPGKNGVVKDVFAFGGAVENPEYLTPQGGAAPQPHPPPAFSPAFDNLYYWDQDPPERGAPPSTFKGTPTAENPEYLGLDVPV
Method in brief: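 In-cell Western in NIH 3T3 cells carrying ErbB2 exon 20 YVMA insertion, with no ligand stimulation. One hour compound exposure at 37 °C before fixation and anti-pY1196 plus GAPDH staining with dual-wavelength fluorescence. IC50 derived after GAPDH normalization.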

EGFR wild type (EGFR WT) = EGFR wild type (EGFR WT) (Homo sapiens (Human), UniProt P00533); assay: Cellular phosphorylation assay, EGF-stimulated EGFR phosphorylation in engineered NIH 3T3 cells, Phospho-EGFR DuoSet IC ELISA, Assay 5; format: cell-based
Chain of EGFR wild type (EGFR WT) (P00533 25-1210): as the sequence (P00533 25-1210) above
Method in brief: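 Phospho-EGFR ELISA on lysates of engineered NIH 3T3 EGFR WT cells, IC50 derived from concentration curves. Cells plated at 20,000/well overnight, given compound dilutions 1 h at 37 °C, then rEGF 100 ng/ml for a further 10 min before lysis.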

Chain of ErbB2 insYVMA (HER2-YVMA, SEQ ID NO: 2) (P04626 with tags, fused parts or gaps INS775YVMA/P1170A limits assumed): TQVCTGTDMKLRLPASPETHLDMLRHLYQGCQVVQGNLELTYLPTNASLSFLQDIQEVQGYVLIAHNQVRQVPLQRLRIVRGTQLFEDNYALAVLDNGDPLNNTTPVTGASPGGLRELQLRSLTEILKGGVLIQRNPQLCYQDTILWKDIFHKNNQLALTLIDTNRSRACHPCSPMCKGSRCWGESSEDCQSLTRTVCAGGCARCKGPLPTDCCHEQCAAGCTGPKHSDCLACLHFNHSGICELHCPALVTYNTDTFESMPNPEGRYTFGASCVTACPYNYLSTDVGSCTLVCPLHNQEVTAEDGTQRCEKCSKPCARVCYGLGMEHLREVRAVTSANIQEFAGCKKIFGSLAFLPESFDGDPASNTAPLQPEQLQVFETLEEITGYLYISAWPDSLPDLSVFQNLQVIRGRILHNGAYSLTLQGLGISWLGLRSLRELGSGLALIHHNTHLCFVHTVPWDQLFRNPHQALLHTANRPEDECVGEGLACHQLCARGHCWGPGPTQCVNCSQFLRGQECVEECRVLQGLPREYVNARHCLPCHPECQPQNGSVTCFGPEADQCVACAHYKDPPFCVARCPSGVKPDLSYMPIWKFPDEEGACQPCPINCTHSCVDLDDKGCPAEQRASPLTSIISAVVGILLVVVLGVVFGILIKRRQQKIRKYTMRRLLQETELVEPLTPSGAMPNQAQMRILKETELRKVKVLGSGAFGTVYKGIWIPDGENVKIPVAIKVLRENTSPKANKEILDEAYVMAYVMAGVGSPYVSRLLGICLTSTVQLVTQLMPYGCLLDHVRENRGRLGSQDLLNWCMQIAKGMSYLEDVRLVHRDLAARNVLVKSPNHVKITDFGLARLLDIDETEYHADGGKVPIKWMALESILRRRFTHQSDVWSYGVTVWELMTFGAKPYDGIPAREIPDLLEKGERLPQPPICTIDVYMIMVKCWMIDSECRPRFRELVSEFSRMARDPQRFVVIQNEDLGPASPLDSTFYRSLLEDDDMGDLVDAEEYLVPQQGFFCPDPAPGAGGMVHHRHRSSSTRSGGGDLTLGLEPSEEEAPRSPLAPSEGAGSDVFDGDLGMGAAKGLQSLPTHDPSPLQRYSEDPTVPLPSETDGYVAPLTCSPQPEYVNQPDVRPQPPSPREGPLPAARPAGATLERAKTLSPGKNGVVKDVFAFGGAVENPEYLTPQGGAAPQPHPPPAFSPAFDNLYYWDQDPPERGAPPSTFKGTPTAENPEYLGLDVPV

Row | SMILES | IC50 ([1]; read-out: Assay 1 IC50) [nM] | IC50 (ErbB2 WT) [nM] | IC50 (EGFR) [nM] | IC50 [2] [nM] | IC50 (EGFR wild type (EGFR WT)) [nM] | IC50 ([1]; Assay 1 IC50 (nM)) [nM]
1 | CN(C)c1ncc2ncnc(Nc3ccc(Oc4ccn5ncnc5c4)c(Cl)c3)c2n1 [Example 396] | 4.9 | 9.6 | ≥ 10000 | 23.9 | ≥ 5000 | 
2 | Cc1cc(Nc2ncnc3cnc(NCc4cnn(C)c4C)nc23)ccc1Oc1ccc2c(c1)ncn2C [Example 103, N2-((1,5-dimethyl-1H-pyrazol-4-yl)methyl)-N8-(3-methyl-4-((1-methyl-1H-benzo[d]imidazol-5-yl)oxy)phenyl)pyrimido[5,4-d]pyrimidine-2,8-diamine] | 20.3 | 56.6 | ≥ 10000 | 61.5 | ≥ 5000 | 
3 | Cc1c(Oc2ccc3c(c2)ncn3C)ccc(Nc2ncnc3cnc(N4CC[C@H](O)C4)nc23)c1F [Example 458] | 13.3 | 28 | 1630 | 75.2 | ≥ 5000 | 
4 | Cc1cc(Nc2ncnc3cnc(O[C@H]4CN(C)CC[C@H]4F)nc23)ccc1Oc1ccc2c(c1)ncn2C [Example 293] | 87.7 | 568 | ≥ 10000 | 81.2 | ≥ 5000 | 
5 | Cc1cc(Nc2ncnc3cnc(N4CC[C@H]4C(C)(C)O)nc23)ccc1Oc1ccn2ncnc2c1 [Example 370] | 57.9 | 129 | ≥ 10000 | 2500 | ≥ 5000 | 
6 | Cc1cc(Nc2ncnc3cnc(N4CCC45COC5)nc23)ccc1Oc1ccn2ncnc2c1 [Example 369] | 7.3 | 37.1 | 3870 | 151 | ≥ 5000 | 
7 | CO[C@H]1C[C@@H](Nc2ncc3ncnc(Nc4ccc(Oc5ccc6c(c5)ncn6C)c(C)c4)c3n2)C1 [Example 260] | 31.8 | 42 | ≥ 10000 | 21.5 | ≥ 5000 | 
8 | Cc1cc(Nc2ncnc3cnc(N4CCOCC4)nc23)ccc1Oc1ccc2c(c1)ncn2C1CC1 [Example 73, N-(4-((1-cyclopropyl-1H-benzo[d]imidazol-5-yl)oxy)-3-methylphenyl)-6-morpholinopyrimido[5,4-d]pyrimidin-4-amine 2,2,2-trifluoroacetate] |  | 163 | ≥ 10000 | 47.5 | ≥ 5000 | 78
9 | COC[C@H](O)CN(C)c1ncc2ncnc(Nc3ccc(Oc4ccn5ncnc5c4)c(Cl)c3)c2n1 [Example 325] | 27.5 | 45.3 | 4880 | 166 | ≥ 5000 | 
10 | Cc1cc(Nc2ncnc3cnc(N4CCN[C@H](C)C4)nc23)ccc1Oc1ccc2c(c1)ncn2C [Example 277] | 16 | 42.8 | ≥ 10000 | 28.3 | ≥ 5000 | 
11 | Cc1cc(Nc2ncnc3cnc(N4C[C@]5(CCOC5)CC4=O)nc23)ccc1Oc1ccc2c(c1)ncn2C [Example 391] | 94.3 | 298 | ≥ 10000 | 143 | ≥ 5000 | 
12 | Cc1cc(Nc2ncnc3cnc(N4CC5(C4)CC(O)(C(F)(F)F)C5)nc23)ccc1Oc1ccc2c(c1)ncn2C [Example 487] | 62.1 | 45.7 | ≥ 10000 | 49.1 | ≥ 5000 | 
13 | Cn1cnc2cc(Oc3ccc(Nc4ncnc5cnc(N6CC[C@@H]7COC[C@H]76)nc45)cc3Cl)ccc21 [Example 489] | 17.7 | 9.7 | 3370 | 16.4 | ≥ 5000 | 
14 | Cc1cc(Nc2ncnc3cnc(N(C)[C@@H]4CN(C)C[C@@H]4F)nc23)ccc1Oc1ccc2c(c1)ncn2C [Example 305] | 14.1 | 20.3 | 1860 | 10.8 | ≥ 5000 | 
15 | Cc1cc(Nc2ncnc3cnc(N4CCOCC4)nc23)ccc1Oc1ccn2ncnc2c1 [Example 412] | 25.9 | 70.5 | ≥ 10000 | 69.7 | ≥ 5000 | 
16 | Cc1cc(Nc2ncnc3cnc(N4C[C@H]5C[C@@H]4CO5)nc23)c(F)cc1Oc1ccc2c(c1)ncn2C [Example 481] | 29.4 | 41.2 | ≥ 10000 | 74.2 | ≥ 5000 | 

Row | SMILES | IC50 ([1]; read-out: Assay 1 IC50) [nM] | IC50 (ErbB2 WT) [nM] | IC50 (EGFR) [nM] | IC50 [2] [nM] | IC50 (EGFR wild type (EGFR WT)) [nM] | IC50 ([1]; Assay 1 IC50 (nM)) [nM]
17 | CON1CCN(c2ncc3ncnc(Nc4ccc(Oc5ccn6ncnc6c5)c(C)c4F)c3n2)CC1 [Example 95, N-(4-([1,2,4]triazolo[1,5-a]pyridin-7-yloxy)-2-fluoro-3-methylphenyl)-6-(4-methoxypiperazin-1-yl)pyrimido[5,4-d]pyrimidin-4-amine] | 25.2 | 95.1 | ≥ 10000 | 179 | ≥ 5000 | 
18 | Cc1cc(Nc2ncnc3cnc(N4CCC5COCC54)nc23)ccc1Oc1ccn2ncnc2c1 (centres unmarked) [Example 420] | 8.2 | 12.9 | 1580 | 108 | ≥ 5000 | 
19 | O[C@H]1CN(c2ncc3ncnc(Nc4ccc(Oc5ccn6ncnc6c5)c(Cl)c4)c3n2)CC[C@@H]1F [Example 338] | 13.2 | 12.8 | 1990 | 65.2 | ≥ 5000 | 
20 | COC[C@H](C)Nc1ncc2ncnc(Nc3ccc(Oc4ccc5c(c4)ncn5C)c(C)c3)c2n1 [Example 62, (S)—N2-(1-methoxypropan-2-yl)-N8-(3-methyl-4-((1-methyl-1H-benzo[d]imidazol-5-yl)oxy)phenyl)pyrimido[5,4-d]pyrimidine-2,8-diamine] | 39.8 | 112 | ≥ 10000 | 27.1 | ≥ 5000 | 
21 | CN(CC(C)(C)O)c1ncc2ncnc(Nc3ccc(Oc4ccn5ncnc5c4)c(Cl)c3)c2n1 [Example 405] | 15.7 | 30.3 | 4690 | 106 | ≥ 5000 | 
22 | Cc1cc(Nc2ncnc3cnc(N4CC[C@]5(CCO5)C4)nc23)ccc1Oc1ccc2c(c1)ncn2C [Example 375] | 22.8 | 34 | ≥ 10000 | 14.9 | ≥ 5000 | 
23 | Cc1cc(Nc2ncnc3cnc(O[C@H]4CN(C)C[C@H]4F)nc23)ccc1Oc1ccc2c(c1)ncn2C [Example 287] | 42.9 | 118 | ≥ 10000 | 60.9 | ≥ 5000 | 
24 | Clc1cc(Nc2ncnc3cnc(N4C5CCC4COC5)nc23)ccc1Oc1ccn2ncnc2c1 [Example 322] | 21.6 | 62.1 | ≥ 10000 | 102 | ≥ 5000 | 
25 | Cc1c(Oc2ccn3ncnc3c2)ccc(Nc2ncnc3cnc(N(C)CC(C)(C)O)nc23)c1F [Example 306] | 16.7 | 35.1 | 6840 | 1000 | ≥ 5000 | 
26 | COC1(C)CN(c2ncc3ncnc(Nc4ccc(Oc5ccc6c(c5)ncn6C)c(C)c4)c3n2)C1 [Example 298] | 40.2 | 234 | ≥ 10000 | 38.6 | ≥ 5000 | 
27 | Cc1c(Oc2ccn3ncnc3c2)ccc(Nc2ncnc3cnc(N4CC[C@@](C)(O)C4)nc23)c1F [Example 308] | 15.1 | 28.8 | ≥ 10000 | 492 | ≥ 5000 | 
28 | C[C@H]1CN(c2ncc3ncnc(Nc4ccc(Oc5ccn6ncnc6c5)c(Cl)c4)c3n2)C[C@@H]1O [Example 340] | 16.8 | 41.2 | 4000 | 165 | ≥ 5000 | 
29 | Cc1cc(Nc2ncnc3cnc(N4CC[C@@H]4C(C)(C)O)nc23)ccc1Oc1ccn2ncnc2c1 [Example 423] | 110 | 337 | ≥ 10000 | 1950 | ≥ 5000 | 
30 | Cc1cc(Nc2ncnc3cnc(N4CCCS4(=O)=O)nc23)ccc1Oc1ccc2c(c1)ncn2C [Example 139, 2-(8-((3-methyl-4-((1-methyl-1H-benzo[d]imidazol-5-yl)oxy)phenyl)amino)pyrimido[5,4-d]pyrimidin-2-yl)isothiazolidine 1,1-dioxide] | 9.6 | 12.6 | 1570 | 6.3 | ≥ 5000 | 
31 | Cc1cc(Nc2ncnc3cnc(N4CC5(COC5)C4)nc23)ccc1Oc1ccc2c(c1)ncn2C [Example 26, N-(3-methyl-4-((1-methyl-1H-benzo[d]imidazol-5-yl)oxy)phenyl)-6-(2-oxa-6-azaspiro[3.3]heptan-6-yl)pyrimido[5,4-d]pyrimidin-4-amine] | 85.6 | 507 | ≥ 10000 | 62.2 | ≥ 5000 | 
